Source: patent publication US20100278837A1, “Compositions And Methods For Reducing Cancer And Inflammation” (The Regents of the University of California, priority 2009, published 2010)

What was measured:
[1] = test system: CD11b+ myeloid cell adhesion to VCAM-1; test: Chemoattractant-stimulated CD11b+ myeloid cell adhesion to VCAM-1 / endothelial cells (Example 9 adhesion assay); assay type: cell-based, mouse
Experimental: 1×10^5 calcein-AM labelled human CD11b+ cells isolated from buffy coats from the San Diego Blood Bank or murine CD11b+ cells isolated from naïve (non-tumour bearing) or tumour-bearing mice were incubated on HUVEC monolayers or on plastic plates coated with 5 μg/ml recombinant soluble VCAM-1 or ICAM-1 (R&D Systems) for 30 minutes at 37° C. with humidity in the presence of LLC Tumour Conditioned Medium (TCM) or DMEM containing 200 ng/ml SDF1α, IL1β, IL6, TNFα or VEGF-A (R&D Systems). (SDF-1α and IL-1β were initially titrated to determine the minimum dose required to achieve near maximal stimulation of adhesion). TCM was prepared by incubating LLC cells in serum-free media for 18 h and filtering through 0.22 μm filters. After washing three times with warmed medium, adherent cells were quantified using a plate fluorimeter (GeniosPro, TECAN).
In some adhesion assays, cells were also incubated in 25 μg/ml function-blocking anti-integrin α4β1 (rat anti-murine, PS2 or mouse anti-human, HP2/1, gifts from Biogen-Idec), rat-anti-αM (anti-CD11b, M1/70) and isotype control antibodies (rat IgG2κ or mouse IgG1) or with 0.1 nM-10 μM doses of the small molecule inhibitor of integrin α4, ELN476063 (IC50=10 nM), a gift from Elan^14.
Additionally, labelled cells were incubated with HUVEC and rsVCAM coated plates in the presence of […] or SDF-1α and 1-10 μM inhibitors: pan-PI3 kinase inhibitors ([…], wortmannin), PI3-kinase α inhibitors (PI3K75, PIK2alpha, PI103), PI3-kinase β inhibitor (TGX221), PI3-kinase γ inhibitors (TG100-115, AS605240, AS604850), inert control, PLC inhibitor (U73122), geranylgeranyltransferase (Rap1-selective) inhibitors (GGTI-2147 and GGTI-298) or farnesyltransferase (Ras-selective) inhibitor (FTI-277), Akt inhibitors (Inhibitor X and peptide 18), mTOR inhibitor (rapamycin), ROCK inhibitor (Y27632), MEK inhibitor (PD98059), p38 inhibitor (SB202190), tyrosine kinase inhibitor (genestein) and PKA inhibitors (H89, KT5720). LY294002, wortmannin, genestein, U73122, GGTI-2147, GGTI-298, FTI-277, Y27632, PD98059, SB202190, H89 and KT5720 were from Calbiochem. PIK2alpha, PI103, AS605240, AS604850 and TGX221 were from Echelon. TG100-115 was prepared as described^25-26. To titrate the effect of various signalling protein inhibitors on myeloid cell adhesion stimulated by IL-1β or SDF-1α, cells were incubated in 1 nm to 100 μM PI3-kinase inhibitors TG00020 (a pan-PI3-kinase inhibitor), PI3-kinase α inhibitor (PI3Kalpha2) PI3-kinase β inhibitor (TGX221), PI3-kinase γ inhibitors (TG100-115, AS605240), an inert chemically matched control, farnesyltrasnferase inhibitors and geranylgeranyltransferase inhibitors. IC50s for GGTI and FTI were 1 μM. […] Adherent GFP+ cells were automatically quantified using MetaMorph software (Molecular Devices Software).

CD11b+ myeloid cells = test: Adoptive transfer: arrest of pretreated CD11b+ myeloid cells in LLC tumours; assay type: in vivo; settings: adoptively transferred into LLC tumour-bearing mice
Experimental: Alternatively, 5×10^6 CFSE labelled CD11b+ cells from C57BL/6, α4Y991A, and PI3-kinase γ−/− mice were injected intravenously into mice bearing subcutaneous (5×10^5) d14 LLC tumours. In other studies, CD11b+ cells from WT mice were treated for 1 h with 1 μM PI3-kinase α inhibitor (PI3K75), PI3-kinase β inhibitor (TGX221), PI3-kinase γ inhibitor (TG100-115) and an inert control or with 10 μM PLC inhibitor (U73122), geranylgeranyltransferase inhibitor (GGT2147) or farnesyltransferase inhibitor (FTI-277) and then injected intravenously into mice bearing subcutaneous (5×10^5) d14 LLC tumours.
In other studies, K, N and H Ras, Rap1, PI3Kα, PI3Kβ, PI3Kγ, PI3Kδ, integrin α4 and integrin αM were knocked down by siRNA transfection of CD11b+ cells as described above. 48 h later, cells were labeled with CFSE and injected into mice with d14 LLC tumours (1×10^6 cells). Fluorescent cells accumulating in tumours and spleens were quantified 2 h and 24 h later by excising tissues, preparing single cell suspensions and performing FACs analysis at 488 nm. No differences were observed between untreated and non-silencing siRNA treated cells.

LLC tumours = test: Subcutaneous LLC tumour growth, inflammation and angiogenesis in treated mice; assay type: in vivo, C57BL/6 mice; settings: daily dosing
Experimental: LLC cells were obtained from the American Type Culture Collection (ATCC) and Panc02 pancreatic ductal carcinoma cells were obtained from the NCI DCTDC Tumour Repository. The abdominal cavities of immunocompetent C57Bl6 mice and integrin α4Y991A knockin mice^30 were opened and the tails of the pancreas were exteriorized. One million Panc02 cells were injected into the pancreatic tail, the pancreas was placed back into the abdominal cavity and the incision was closed. Tumours were excised after 30 days. 5×10^5 LLC cells were injected subcutaneously or by intravenous tail vein injection into C57Bl6 or integrin α4Y991A mice. Tumours were excised at 7, 14 or 21 days, cryopreserved in O.C.T., lysed for RNA purification or collagenase-digested for flow cytometric analysis of CD11b and Gr1 expression. […] Tumours were harvested, weighed and further analyzed on day 8. […]
PI3-kinase γ inhibitor studies: C57BL/6 mice were subcutaneously implanted on d1 with 5×10^5 LLC or by intradermal injection with 5×10^5 B16 melanoma cells. […] Tumour volumes, weights and blood vessel densities, as well as myeloid cell densities were measured. […] Tumours were excised, weighed and analyzed after 3 weeks. […] Mice were sacrificed at 9 weeks of age and tumours were analyzed.

| Structure (SMILES) | adhesion, ligand binding and integrin conformational changes ([1]; chemokine-stimulated myeloid cells) | IC50 ([1]; stimulated by IL-1β or SDF-1α, read-out: IC50, myeloid cell adhesion) [µM] | myeloid cell arrest in tumours in vivo (CD11b+ myeloid cells) | LLC tumour growth (LLC tumours) |
| --- | --- | --- | --- | --- |
| COC(=O)[C@H](CCSC)NC(=O)c1ccc(NC[C@@H](N)CS)cc1-c1ccccc1 [FTI] | blocked adhesion, ligand binding and integrin conformational changes | 1 | suppressed myeloid cell arrest in tumours in vivo | – |
| O=C1NC(=O)/C(=C\c2ccc3nccnc3c2)S1 [AS605240] | – | – | – | suppressed tumour growth at similar doses |
